{"source": "paper PMC9354042", "about": "“Discovery of BRAF/HDAC Dual Inhibitors Suppressing Proliferation of Human Colorectal Cancer Cells” (Frontiers in Chemistry, 2022)", "key": {"HCT116 cells": {"system": "HCT116 cells", "assay": "Antiproliferation CCK-8 assay, HCT116", "type": "cell-based", "details": "Homo sapiens, HCT-116; CCK-8, 72 h, HCT116 (wild-type BRAF); means of three independent experiments; read-out: Cellular IC50 HCT116", "experimental": "(§1) HCT116 and HT-29 cells were obtained from the Shanghai Cell Bank (Type Culture Collection (TCC), Chinese Academy of Sciences) and cultured in DMEM (10–013-CVR, corning) supplemented with 10% fetal bovine serum (04-001-1A, BI), 1% penicillin/streptomycin (03-031-1B, BI).\n(§2) The cells in the logarithmic phase were placed in 96-well plates (∼3000 cells/well) in a complete medium. After incubation overnight, the cells were exposed to the corresponding compounds or vehicle control at the indicated concentration for a further 72 h. Cell proliferation was evaluated using Cell Counting Kit 8 (CCK8, CK04, Dojindo Laboratories, Kumamoto, Japan). OD450 and OD650 were determined using a microplate reader. Absorbance rate (A) for each well was calculated as OD450 −OD650. […] Each IC50 value is expressed as mean ± SD. As is the absorbance rate of the test compound well, Ac is the absorbance rate of the well without either the cell or test compound, and Ab is the absorbance rate of the well with the cell and vehicle control."}, "[1]": {"system": "Ac-histone H3, Ac-α-tubulin, p-ERK in HCT116 cells", "assay": "Western blot analysis of HDAC and RAF pathway in HCT116 cells", "type": "cell-based, human", "experimental": "(§3) FIGURE 3 Characterization of dual inhibition of HDAC and RAF pathway. Western blot analysis of 14b in HCT116 cells (A) and in HT-29 cells (B). Cells were treated with 0 μM, 0.12 μM, 0.37 μM, 1.1 μM, 3.3 μM, and 10 μM of drugs and incubated for 6 h. The cell lysis was subjected to Western blot analysis.\n(§4) The cells were treated with various concentrations of 14b for 6 h. Then, the cells were lysed using 1×SDS sample lysis buffer (CST recommended) with protease and phosphatase inhibitors. Cell lysates were loaded and electrophoresed onto 8–12% SDS-PAGE gel, and then the separated proteins were transferred to a PVDF film. The film was blocked with 5% BSA (Sigma-Aldrich, St. Louis, MO, United States) in a TBS solution containing 0.5% Tween-20 for 4 h at room temperature, then incubated with the corresponding primary antibody (1:1000–1:200) overnight at 4°C. After washing with TBST, HRP-conjugated secondary antibody was incubated for 2 h. The protein signals were visualized by the ECL Western Blotting Detection Kit (Thermo Scientific, Grand Island, NY, United States), and detected with Amersham Imager 600 system (GE, Boston, MA, United States)."}, "HT-29 cells": {"system": "HT-29 cells", "assay": "Antiproliferation CCK-8 assay, HT-29", "type": "cell-based", "details": "Homo sapiens; CCK-8, 72 h, HT-29 (BRAF^V600E); means of three independent experiments; read-out: Cellular IC50 HT-29", "experimental": "as §1, §2"}, "HDAC8": {"target": "T1, HDAC8 (Homo sapiens, UniProt Q9BY41)", "T1 construct": "purchased BPS Bioscience", "T1 sequence (Q9BY41 1-377)": "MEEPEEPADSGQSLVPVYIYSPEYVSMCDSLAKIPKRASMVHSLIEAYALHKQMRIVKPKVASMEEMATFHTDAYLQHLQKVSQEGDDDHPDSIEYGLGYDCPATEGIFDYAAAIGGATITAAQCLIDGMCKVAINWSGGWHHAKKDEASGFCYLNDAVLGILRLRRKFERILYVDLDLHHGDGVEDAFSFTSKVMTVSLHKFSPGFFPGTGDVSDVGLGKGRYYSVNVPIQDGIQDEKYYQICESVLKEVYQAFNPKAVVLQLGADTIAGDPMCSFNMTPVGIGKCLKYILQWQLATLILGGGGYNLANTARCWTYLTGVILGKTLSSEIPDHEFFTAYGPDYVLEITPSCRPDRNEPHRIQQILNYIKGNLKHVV", "assay": "HDAC8 fluorescent-based enzymatic activity assay", "type": "biochemical", "details": "Table 3 isoform panel; read-out: Enzyme inhibition HDAC8 (Class I)", "experimental": "The purified recombinant Human HDACs and their corresponding substrates were purchased from BPS Bioscience (BPS Bioscience Inc., United States). The assays were carried out in a 384-well format using the BPS fluorescent–based HDAC activity assay according to the manufacturer’s protocol. In brief, […] of the HDAC reaction mixture was composed of HDAC assay buffer, […] BSA, serial diluted test compounds, appropriate concentration of HDACs, and […] fluorogenic substrate, the mixture was incubated at 37°C for 60 min, and then stopped by the addition of developer containing trypsin and TSA. After 20 min of incubation, the fluorescence was detected at the excitation wavelength of 360 nm and the emission wavelength of 460 nm using the EnVision Multilabel Reader (PerkinElmer Inc., United States). The analytical software, GraphPad Prism 5.0 (GraphPad Software, Inc., United States) was used to generate IC50 value via non-linear regression analysis."}, "[2]": {"system": "Ac-histone H3, Ac-α-tubulin, p-ERK in HT-29 cells", "assay": "Western blot analysis of HDAC and RAF pathway in HT-29 cells", "type": "cell-based, human", "experimental": "as §3, §4"}}}
{"compound": "CC(C)(C)c1nc(-c2cccc(NS(=O)(=O)c3c(F)cccc3F)c2F)c(-c2ccnc(NCCCCCCC(=O)NO)n2)s1", "note": "[14b, 7-{[4-(2-(Tert-Butyl)-4-(3-((2,6-Difluorophenyl)Sulfonamido)-2-Fluorophenyl)Thiazol-5-yl)Pyrimidin-2-yl]Amino}-N-Hydroxyheptanamide]", "values": [{"measurement": "IC50", "setting": "HCT116 cells", "value": 1.68, "unit": "µM"}, {"measurement": "expression of BRAF", "setting": "[1]; HCT116 cells", "value": "did not affect the expression of BRAF itself"}, {"measurement": "phosphorylation of ERK (p-ERK)", "setting": "[1]; HCT116 cells (wild-type BRAF, K-RAS G13D), 0.12-10 μM, 6 h", "value": "significantly inhibited phosphorylation of ERK"}, {"measurement": "acetylated histone H3 (Ac-histone H3)", "setting": "[1]; HCT116 cells, 0.12-10 μM, 6 h", "value": "upregulated"}, {"measurement": "acetylated α-tubulin (Ac-α-tubulin)", "setting": "[1]; HCT116 cells, 0.12-10 μM, 6 h", "value": "upregulated"}, {"measurement": "IC50", "setting": "HT-29 cells", "value": 0.31, "unit": "µM"}, {"measurement": "IC50", "setting": "HDAC8", "value": 3, "unit": "µM"}, {"measurement": "expression of BRAF", "setting": "[2]", "value": "did not affect the expression of BRAF itself"}, {"measurement": "acetylated histone H3 (Ac-histone H3)", "setting": "[2]; 0.12-10 μM, 6 h", "value": "upregulated"}, {"measurement": "acetylated α-tubulin (Ac-α-tubulin)", "setting": "[2]; 0.12-10 μM, 6 h", "value": "upregulated"}, {"measurement": "phosphorylation of ERK (p-ERK)", "setting": "[2]; 0.12-10 μM, 6 h", "value": "significantly inhibited at the lowest concentration of 0.12 μM"}]}
